Reference: ChEMBL document CHEMBL1212738, “Phenotypic and genotypic characterization of Enterobacteriaceae with decreased susceptibility to carbapenems: results from large hospital-based surveillance studies in China” (2010)
≈ marks a conversion by molar mass, not a printed value.

Experiments:
Escherichia coli [1] = assay: Antimicrobial activity against Escherichia coli C600 transconjugant GZ66T expressing SHV-11, DHA-1 by CLSI method
Escherichia coli [2] = assay: Antimicrobial activity against Escherichia coli C600 transconjugant WH77T expressing IMP-4, TEM-1, CTX-M-3, qnrS1 by CLSI method
Citrobacter freundii = assay: Antimicrobial activity against Citrobacter freundii RJ78 expressing CMY-2, qnrA1, aac(6')-Ib-cr, ompC by CLSI method; format: functional
Klebsiella pneumoniae [3] = assay: Antimicrobial activity against carbapenem-resistant Klebsiella pneumoniae FZ49 deficient in IMP-8, TEM-1, SHV-11, CTX-M-14, qnrB2, aac(6')-Ib, ompK35/36 by CLSI method; format: functional
Klebsiella aerogenes [4] = assay: Antimicrobial activity against Enterobacter aerogenes PU41T expressing CTX-M-14, DHA-1, qnrS1 by CLSI method; format: functional
Escherichia coli [5] = assay: Antimicrobial activity against Escherichia coli PU60T expressing CMY-2 by CLSI method; format: functional
Escherichia coli [6] = assay: Antimicrobial activity against Escherichia coli ZJ86T expressing KPC-2 by CLSI method; format: functional
Escherichia coli [7] = assay: Antimicrobial activity against Escherichia coli ZJ87T expressing KPC-2 by CLSI method; format: functional
Klebsiella pneumoniae [8] = assay: Antimicrobial activity against Klebsiella pneumoniae ZJ70T expressing KPC-2 by CLSI method; format: functional
Klebsiella pneumoniae [9] = assay: Antimicrobial activity against carbapenem-resistant Klebsiella pneumoniae ZJ18 deficient in KPC-2, SHV-28, DHA-1, ompK35 by CLSI method; format: functional
Escherichia coli [10] = assay: Antimicrobial activity against Escherichia coli PU101T expressing CMY-2 by CLSI method; format: functional
Escherichia coli [11] = assay: Antimicrobial activity against Escherichia coli ZJ87 expressing KPC-2, TEM-1, ompC by CLSI method; format: functional
Klebsiella pneumoniae [12] = assay: Antimicrobial activity against carbapenem-resistant Klebsiella pneumoniae PU8 deficient in SHV-11, DHA-1, aac(6')-Ib-cr, ompK35/36 by CLSI method; format: functional
Klebsiella pneumoniae [13] = assay: Antimicrobial activity against Klebsiella pneumoniae ZJ71T expressing KPC-2 by CLSI method; format: functional
Klebsiella pneumoniae [14] = assay: Antimicrobial activity against carbapenem-resistant Klebsiella pneumoniae XJ81 deficient in TEM-1, SHV-12, DHA-1, aac(6')-Ib, ompK35/36 by CLSI method; format: functional
Klebsiella pneumoniae [15] = assay: Antimicrobial activity against carbapenem-resistant Klebsiella pneumoniae CY75 deficient in SHV-11, DHA-1, ompK35/36 by CLSI method; format: functional
Klebsiella pneumoniae [16] = assay: Antimicrobial activity against Klebsiella pneumoniae GZ64 expressing IMP-4, ompK35/36 by CLSI method; format: functional
Klebsiella pneumoniae [17] = assay: Antimicrobial activity against carbapenem-resistant Klebsiella pneumoniae PU5 deficient in SHV-12, DHA-1, aac(6')-Ib-cr, ompK35/36 by CLSI method; format: functional
Escherichia coli [18] = assay: Antimicrobial activity against carbapenem-resistant Escherichia coli ZJ86 expressing KPC-2, TEM-1 with ompC loss by CLSI method
Klebsiella pneumoniae [19] = assay: Antimicrobial activity against Klebsiella pneumoniae ZJ18T expressing KPC-2, DHA-1 by CLSI method; format: functional
Klebsiella pneumoniae [20] = assay: Antimicrobial activity against Klebsiella pneumoniae FZ47T expressing IMP-8, TEM-1, CTX-M-14, qnrB2, aac(6')-Ib by CLSI method; format: functional
Klebsiella pneumoniae [21] = assay: Antimicrobial activity against Klebsiella pneumoniae ZJ68T expressing CTX-M-15 by CLSI method; format: functional
Klebsiella pneumoniae [22] = assay: Antimicrobial activity against carbapenem-resistant Klebsiella pneumoniae GZ84 deficient in SHV-11, aac(6')-Ib-cr, ompK35 by CLSI method; format: functional
Klebsiella pneumoniae [23] = assay: Antimicrobial activity against carbapenem-resistant Klebsiella pneumoniae SZ61 deficient in TEM-1, SHV-1a, CMY-2, ompK35/36 by CLSI method; format: functional
Enterobacter cloacae [24] = assay: Antimicrobial activity against carbapenem-resistant Enterobacter cloacae GX24 deficient in TEM-1, DHA-1, aac(6')-Ib, ompC by CLSI method; format: functional
Escherichia coli [25] = assay: Antimicrobial activity against Escherichia coli C600 by CLSI method; format: functional
Klebsiella aerogenes [26] = assay: Antimicrobial activity against carbapenem-resistant Enterobacter aerogenes WH85 deficient in TEM-1, CTX-M-3, ompC/F by CLSI method; format: functional
Escherichia coli [27] = assay: Antimicrobial activity against Escherichia coli PU102T expressing TEM-1, CTX-M-14, CMY-2 by CLSI method; format: functional
Enterobacter cloacae [28] = assay: Antimicrobial activity against carbapenem-resistant Enterobacter cloacae SZ92 deficient in IMP-4, TEM-1, CTX-M-14, DHA-1, qnrB10/B4-like, aac(6')-Ib, ompC by CLSI method; format: functional
Klebsiella pneumoniae [29] = assay: Antimicrobial activity against Klebsiella pneumoniae PU104T expressing TEM-1, CTX-M-15 by CLSI method; format: functional
Enterobacter cloacae [30] = assay: Antimicrobial activity against carbapenem-resistant Enterobacter cloacae NJ91 deficient in CTX-M-14, ompC/F by CLSI method; format: functional
Enterobacter cloacae [31] = assay: Antimicrobial activity against carbapenem-resistant Enterobacter cloacae NJ89 deficient in CTX-M-14, ompC/F by CLSI method; format: functional
Klebsiella pneumoniae [32] = assay: Antimicrobial activity against Klebsiella pneumoniae ZJ99 expressing KPC-2, CTX-M-3, qnrS1, ompK35 DE by CLSI method; format: functional
Escherichia coli [33] = assay: Antimicrobial activity against carbapenem-resistant Escherichia coli PU101 deficient in TEM-1, CTX-M-14, CMY-2, ompC by CLSI method; format: functional
Enterobacter cloacae [34] = assay: Antimicrobial activity against carbapenem-resistant Enterobacter cloacae NJ88 deficient in CTX-M-14, ompC/F by CLSI method; format: functional
Escherichia coli [35] = assay: Antimicrobial activity against carbapenem-resistant Escherichia coli HX74 deficient in TEM-1, CTX-M-14, CTX-M-3, aac(6')-Ibcr, ompC/F by CLSI method; format: functional
Klebsiella pneumoniae [36] = assay: Antimicrobial activity against Klebsiella pneumoniae WH77 expressing IMP-4, TEM-1, SHV-14, CTX-M-3, qnrS1 by CLSI method; format: functional
Klebsiella pneumoniae [37] = assay: Antimicrobial activity against Klebsiella pneumoniae CY1T expressing SHV-11, DHA-1 by CLSI method; format: functional
Klebsiella pneumoniae [38] = assay: Antimicrobial activity against carbapenem-resistant Klebsiella pneumoniae CY1 deficient in SHV-11, DHA-1, ompK35/36 by CLSI method; format: functional
Enterobacter cloacae [39] = assay: Antimicrobial activity against carbapenem-resistant Enterobacter cloacae NJ90 deficient in CTX-M-14, ompC/F by CLSI method; format: functional

| Molecule | MIC (Citrobacter freundii) | MIC (Klebsiella pneumoniae [3]) | MIC (Klebsiella aerogenes [4]) | MIC (Escherichia coli [5]) | MIC (Escherichia coli [6]) | MIC (Escherichia coli [7]) | MIC (Klebsiella pneumoniae [8]) | MIC (Klebsiella pneumoniae [9]) | MIC (Escherichia coli [10]) | MIC (Escherichia coli [11]) | MIC (Klebsiella pneumoniae [12]) | MIC (Klebsiella pneumoniae [13]) | MIC (Klebsiella pneumoniae [14]) | MIC (Klebsiella pneumoniae [15]) | MIC (Klebsiella pneumoniae [16]) | MIC (Klebsiella pneumoniae [17]) | MIC (Klebsiella pneumoniae [19]) | MIC (Klebsiella pneumoniae [20]) | MIC (Klebsiella pneumoniae [21]) | MIC (Klebsiella pneumoniae [22]) | other results |
| --- | --- | --- | --- | --- | --- | --- | --- | --- | --- | --- | --- | --- | --- | --- | --- | --- | --- | --- | --- | --- | --- |
| C[C@@H](O)[C@H]1C(=O)N2C(C(=O)O)=C(S[C@@H]3CN[C@H](C(=O)N(C)C)C3)[C@H](C)[C@H]12 [MEROPENEM] | 2 µg/mL (≈ 5.22 µM) | 2 µg/mL (≈ 5.22 µM) | 0.032 µg/mL (≈ 0.0834 µM) | 0.032 µg/mL (≈ 0.0834 µM) | 8 µg/mL (≈ 20.9 µM) | 8 µg/mL (≈ 20.9 µM) | 8 µg/mL (≈ 20.9 µM) | 8 µg/mL (≈ 20.9 µM) | 0.032 µg/mL (≈ 0.0834 µM) | 8 µg/mL (≈ 20.9 µM) | 8 µg/mL (≈ 20.9 µM) | 4 µg/mL (≈ 10.4 µM) | 2 µg/mL (≈ 5.22 µM) | 8 µg/mL (≈ 20.9 µM) | 8 µg/mL (≈ 20.9 µM) | 8 µg/mL (≈ 20.9 µM) | 1 µg/mL (≈ 2.61 µM) | 1 µg/mL (≈ 2.61 µM) | 0.032 µg/mL (≈ 0.0834 µM) | 1 µg/mL (≈ 2.61 µM) | MIC (Escherichia coli [1]): 0.032 µg/mL (≈ 0.0834 µM); MIC (Escherichia coli [2]): 4 µg/mL (≈ 10.4 µM); MIC (Escherichia coli [18]): 8 µg/mL (≈ 20.9 µM); MIC (Klebsiella pneumoniae [23]): 8 µg/mL (≈ 20.9 µM); MIC (Enterobacter cloacae [24]): 2 µg/mL (≈ 5.22 µM); MIC (Escherichia coli [25]): 0.03 µg/mL (≈ 0.0782 µM); MIC (Klebsiella aerogenes [26]): 8 µg/mL (≈ 20.9 µM); MIC (Escherichia coli [27]): 0.032 µg/mL (≈ 0.0834 µM); MIC (Enterobacter cloacae [28]): 8 µg/mL (≈ 20.9 µM); MIC (Klebsiella pneumoniae [29]): 0.032 µg/mL (≈ 0.0834 µM) |
| POLYMYXIN B | 2 µg/mL | 1 µg/mL | 0.25 µg/mL | 0.25 µg/mL | 0.5 µg/mL | 0.25 µg/mL | 0.25 µg/mL | 0.5 µg/mL | 0.25 µg/mL | 0.5 µg/mL | 1 µg/mL | 0.5 µg/mL | 0.5 µg/mL | 1 µg/mL | 0.5 µg/mL | 1 µg/mL | 0.25 µg/mL | 0.25 µg/mL | 0.5 µg/mL | 0.5 µg/mL | MIC (Enterobacter cloacae [30]): 0.5 µg/mL; MIC (Enterobacter cloacae [31]): 0.5 µg/mL; MIC (Klebsiella pneumoniae [32]): 1 µg/mL; MIC (Escherichia coli [33]): 0.5 µg/mL; MIC (Enterobacter cloacae [34]): 0.5 µg/mL; MIC (Escherichia coli [35]): 0.5 µg/mL; MIC (Klebsiella pneumoniae [36]): 1 µg/mL; MIC (Klebsiella pneumoniae [37]): 0.25 µg/mL; MIC (Klebsiella pneumoniae [38]): 1 µg/mL; MIC (Enterobacter cloacae [39]): 0.5 µg/mL; MIC (Klebsiella pneumoniae [23]): 0.5 µg/mL; MIC (Enterobacter cloacae [24]): 2 µg/mL; MIC (Escherichia coli [25]): 0.5 µg/mL; MIC (Klebsiella aerogenes [26]): 0.5 µg/mL; MIC (Escherichia coli [27]): 0.25 µg/mL; MIC (Enterobacter cloacae [28]): 0.5 µg/mL; MIC (Klebsiella pneumoniae [29]): 0.25 µg/mL |
